Data reported in US12527818B2, “Platinum-based chemotherapy, mast binding agents, glucocorticoid receptor (GR) binding agents, and/or HSP90 binding agents for uses in treating cancer” (Emory University, priority 2019, dated 2026).
“Also recorded” adds a separate entry of the source. Peptide text beside a SMILES is read from it. * marks the point of attachment. Cbz = O=C(OCc1ccccc1)*

Experiments:
[1] = system: cisplatin-resistant cancer cells; assay: Cisplatin response and cell viability of cisplatin-resistant cancer cells with 17-AAG; assay type: cell-based, human
Protocol: (§1) These in vitro observations were confirmed in vivo.
(§2) Experiments were performed to determine whether ubiquitination of MAST1 at K317 and K545 upon hsp90 inhibition is involved in MAST1-mediated cisplatin-resistant cancer cell proliferation and tumor growth. […] The effect of MAST1 WT or 2KR was monitored in cells with MAST1 knockdown. […] This finding was further validated in vivo.

MAST1 mRNA = MAST1 mRNA expression upon 17-AAG treatment; assay type: cell-based, human
MEK1 [2] = assay: MEK1 activity in cisplatin-resistant cells upon 17-AAG treatment; assay type: cell-based, human; conditions: MAST1 WT
Protocol: as §2

AKT or cRaf = assay: Protein levels of other hsp90 client proteins upon 17-AAG treatment; assay type: cell-based, human; conditions: same doses of 17-AAG as diminish MAST1
Protocol: (§3) Proteins that interact with MAST1 in cells were investigated through 2-dimensional (2D) gel electrophoresis-based proteomic profiling. GST or GST-fused MAST1 was pulled down from human 293T cells. The protein captured by GST-MAST1 but not by GST alone was excised from the 2D gel. Through mass spectrometry-based (MS-based) proteomic analysis, hsp90B was identified as a potential binding partner of MAST1. […] Experiments were performed to determine whether the interaction is limited to the hsp90B isoform by comparing the interaction between MAST1 and hsp90B or hsp90A. Hsp90A, another isoform of hsp90, also binds to MAST1 in cisplatin-resistant cancer cells. Although hsp90A binds to MAST1 in cisplatin-resistant cancer cells, the interaction was weaker compared with hsp90B. […] Experiments were performed to determine whether treatment with 17-AAG, a selective inhibitor of hsp90, alters MAST1 protein levels in cells.
(§4) The ubiquitination status of MAST1 in the presence and absence of hsp90 was assessed. […] This was further confirmed in cisplatin-resistant cancer cells.

MAST1 [3] = assay: MAST1 protein level in cancer cells upon 17-AAG treatment; assay type: cell-based, human
Protocol: as §3
Through a MS-based proteomic analysis, it was identified that MAST1 is specifically ubiquitinated at lysine residues K317 and K545 upon hsp90 inhibition. To investigate whether these 2 residues are the main ubiquitination sites of MAST1 that mediate proteasomal degradation upon hsp90 inhibition, the lysine-to-arginine mutant forms of MAST1, K317R, K545R, and the double KR mutant K317R/K545R (2KR) were generated.
as §2

hsp90A = hsp90A (Homo sapiens, UniProt P07900)
hsp90B = hsp90B (Homo sapiens, UniProt P08238)
[4] = system: KB-3-1cisR xenograft tumors; assay: Xenograft mice bearing KB-3-1cisR tumors treated with 17-AAG and cisplatin; assay type: in vivo
Protocol: Mice were treated with cisplatin (5 mg/kg) and 17-AAG (50 mg/kg) from 5 days after xenograft.
as §1, §2

MAST1 [5] = assay: MAST1 ubiquitination and degradation with proteasome inhibitor; assay type: cell-based, human
Protocol: as §4

MAST1 promoter = MAST1 promoter reporter activity assay; assay type: cell-based, human; conditions: pMAST1-luc reporter
Protocol: (§5) The Transcription Factor Activation Profiling Array detects activities of 96 cellular TFs, including HIF1, p53, and NF-kB, which are essential in regulating cellular gene expression. Among the 96 TFs, 6 were activated more than 1.8-fold when cells were treated with cisplatin, including GR/[…] (PR), NFAT, ATF2, CAR, and CBF. To investigate whether any of these TFs activate the MAST1 promoter, these 6 TFs were knocked down in KB-3-1 cells and a MAST1 promoter reporter activity assay was performed in the presence of cisplatin. Knockdown of GR but not other TFs attenuated MAST1 promoter activity. In addition, modulation of GR affected MAST1 promoter activity in the presence of cisplatin in cancer cells. Target downregulation or overexpression of GR abolished or enhanced MAST1 promoter activity in a cisplatin dose-dependent manner in KB-3-1 cells. In line with the changes seen in MAST1 mRNA, MAST1 protein level correlated with GR level in cancer cells (FIG. 3D).
GR binds to the glucocorticoid response element (GRE) on DNA within the promoter region and regulates genes. A GRE was identified within the MAST1 promoter sequence at −44 to −58. […]

MAST1 [6] = assay: MAST1 induction by cisplatin in cancer cell lines; assay type: cell-based, human; conditions: KB-3-1, A549, and A2780 cell lines
Protocol: (§6) Experiments were performed to determine whether MAST1 is induced by cisplatin treatment. Cell line-based studies indicate that MAST1 is increased upon cisplatin treatment in three cancer cell lines, KB-3-1, A549, and A2780. To validate this observation in vivo, cisplatin-resistant tumors were established by treating KB-3-1 bearing mice with sub-effective doses of cisplatin. The MAST1 gene was induced in xenografted tumors after cisplatin administration in mice. […] Cisplatin-resistant refers to patients with tumor recurrence within two years of cisplatin or carboplatin-based chemotherapy.

GR = GR intracellular location by immunofluorescence staining; assay type: cell-based, human; conditions: KB-3-1 cancer cell line
Description: To explore the molecular mechanism by which the transcription factor activity of GR is enhanced by cisplatin treatment, the intracellular location of GR in cisplatin-treated cells was investigated. GR resides predominantly in the cytoplasm as part of a heterooligomeric complex of HSP 40, 70, and 90 and other proteins. Binding to its agonist ligand changes the conformation of GR, which dissociates from the HSPs and possibly other protein factors, and translocates into the nucleus. The nuclear translocated GR is considered to be activated GR. Thus, experiment were performed to determine whether cisplatin treatment changes the cellular location of GR from the cytosol to the nucleus in cancer cells. […] This observation was confirmed in vivo in xenograft mice. […] Furthermore, the translocation of GR was found in paired primary HNSCC patient tumors. GR was located mainly in the cytosol in tumors collected from patients before cisplatin or carboplatin therapy, whereas the GR was predominantly stained in the nucleus in tumors collected from patients after the therapy. These experiments indicate that cisplatin treatment activates GR by translocating it to the nucleus in cancer cells.

[7] = system: KB-3-1 xenografted tumors; assay: Xenograft mice bearing KB-3-1 tumors treated with cisplatin; assay type: in vivo
Protocol: as §6
To explore the molecular mechanism by which the transcription factor activity of GR is enhanced by cisplatin treatment, the intracellular location of GR in cisplatin-treated cells was investigated. GR resides predominantly in the cytoplasm as part of a heterooligomeric complex of HSP 40, 70, and 90 and other proteins. Binding to its agonist ligand changes the conformation of GR, which dissociates from the HSPs and possibly other protein factors, and translocates into the nucleus. The nuclear translocated GR is considered to be activated GR. Thus, experiment were performed to determine whether cisplatin treatment changes the cellular location of GR from the cytosol to the nucleus in cancer cells. […] This observation was confirmed in vivo in xenograft mice. […]

96 cellular TFs = assay: Transcription Factor Activation Profiling Array; assay type: cell-based, human; conditions: cisplatin treated vs nontreated KB-3-1 cells
Protocol: as §5

GR, MAST1 = assay: Dexamethasone effect on GR activity, MAST1 expression and cisplatin-resistant tumor growth; conditions: treatment with dexamethasone
KB-3-1 cells = assay: CellTiter-Glo Luminescent Cell Viability assay, GR antagonist or agonist with cisplatin; assay type: cell-based, human
Protocol: (§7) Loss of GR sensitizes cells to cisplatin. GR was inhibited by shRNA (top) or by antagonist (bottom) in the presence or absence of cisplatin. Cell viability and MEK activity was measured by CellTiter-Glo™ Luminescent Cell Viability assay and p-MEK1 S217/S221 blot, respectively. Cisplatin: 1 μg/ml, Mifepristone: 10 μM.
(§8) GR was enhanced by overexpression (top) or agonist (bottom) and cell viability and MEK1 activity was measured, cisplatin: 3 μg/ml, dexamethasone: 0.5 μM.
(§9) To investigate whether GR contributes to cisplatin resistance in cancer cells, GR was genetically or pharmacologically modulated and changes in cisplatin-resistant cancer cell proliferation as well as the activity of MEK1, which is the predominant substrate of MAST1, was monitored. […] Exogenous overexpression of myc tagged MAST1 restored the attenuated cisplatin-resistant cell growth and MEK1 activity in KB-3-1 cells with GR inhibition either by GR shRNA or GR antagonist mifepristone (FIG. 2A). […] In contrast, reduction of MAST1 by shRNA abolished the elevated cisplatin resistant cancer cell proliferation and MEK1 activity in KB-3-1 cells with activated GR either by flag-GR overexpression or GR agonist dexamethasone (FIG. 2C). Knockdown of MAST1 dramatically attenuated cisplatin resistant tumor growth in xenograft mice bearing flag-GR stably overexpressed KB-3-1 cells (FIG. 2D).

MEK1 [8] = assay: MEK1 activity by p-MEK1 S217/S221 blot, GR antagonist or agonist with cisplatin; assay type: cell-based, human; conditions: KB-3-1 cells
Protocol: as §7, §8, §9

[9] = system: ovarian cancer and head and neck cancer PDX; assay: Tumor volume in PDX mice treated with cisplatin, dexamethasone and lestaurtinib; assay type: in vivo; conditions: 5 mg/kg cisplatin, 0.1 mg/kg dexamethasone twice/week, 20 mg/kg lestaurtinib daily
Protocol: Tumor volumes were measured by caliper.
Therefore, we performed pilot experiments in vitro and in vivo to examine the concept.

[10] = cisplatin 3 μg/ml, dexamethasone 0.5 μM
[11] = cisplatin 1 μg/ml, mifepristone 10 μM

hsp90B, sequence (P08238 whole entry): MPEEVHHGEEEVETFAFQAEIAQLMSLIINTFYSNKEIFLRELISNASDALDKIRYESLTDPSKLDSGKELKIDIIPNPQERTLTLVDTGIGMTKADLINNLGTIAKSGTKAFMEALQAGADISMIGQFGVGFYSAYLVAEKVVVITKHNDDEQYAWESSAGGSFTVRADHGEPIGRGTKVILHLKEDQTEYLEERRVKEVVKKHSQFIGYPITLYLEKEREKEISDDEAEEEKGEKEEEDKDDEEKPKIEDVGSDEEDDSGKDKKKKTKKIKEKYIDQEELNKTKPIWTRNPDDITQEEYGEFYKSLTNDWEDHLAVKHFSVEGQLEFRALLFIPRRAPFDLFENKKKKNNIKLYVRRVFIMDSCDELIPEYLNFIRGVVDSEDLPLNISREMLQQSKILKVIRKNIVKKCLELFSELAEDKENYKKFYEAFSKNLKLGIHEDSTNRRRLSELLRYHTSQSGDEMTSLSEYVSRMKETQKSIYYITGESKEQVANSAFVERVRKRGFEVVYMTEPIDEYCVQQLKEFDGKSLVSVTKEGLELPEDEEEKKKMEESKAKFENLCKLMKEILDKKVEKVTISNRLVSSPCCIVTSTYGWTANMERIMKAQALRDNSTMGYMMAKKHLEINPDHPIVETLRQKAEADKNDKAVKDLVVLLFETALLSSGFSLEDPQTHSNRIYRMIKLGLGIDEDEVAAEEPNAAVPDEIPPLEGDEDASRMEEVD

C=CCNC1=C2CC(C)CC(OC)C(O)C(C)C=C(C)C(OC(N)=O)C(OC)C=CC=C(C)C(=O)NC(=CC1=O)C2=O (centres unmarked) [17-AAG, 19-(allylamino)-13-hydroxy-8,14-dimethoxy-4,10,12,16-tetramethyl-3,20,22-trioxo-2-azabicyclo[16.3.1]docosa-1(21),4,6,10,18-pentaen-9-yl carbamate]
cell viability and cisplatin resistance, cells expressing MAST1 2KR ([1]; MAST1 2KR, in the presence of cisplatin): no significant decrease in cell viability and cisplatin resistance
cell viability and cisplatin resistance, cells expressing MAST1 WT ([1]; MAST1 WT, in the presence of cisplatin): sensitive to 17-AAG treatment
cisplatin resistance of cisplatin-resistant cancer cells ([1]; with cisplatin): significantly sensitized cisplatin-resistant cancer cells to cisplatin
MAST1 mRNA expression levels (MAST1 mRNA): remained unchanged
activity of the downstream substrate MEK1 (MEK1 [2]): attenuated activity of the downstream substrate MEK1
protein levels of hsp90 client proteins AKT or cRaf (AKT or cRaf): insufficient to decrease
2KR MAST1 protein (MAST1 [3]; MAST1 K317R/K545R (2KR)): remained intact
wild-type (WT) MAST1 protein (MAST1 [3]; MAST1 WT): degraded upon 17-AAG treatment in a dose-dependent manner
MAST1 protein levels (MAST1 [3]; cancer cells): diminished MAST1 protein levels in a dose-dependent manner; also recorded: decreased the level of MAST1
binding to hsp90A (SPR) (hsp90A): binds to both hsp90A and hsp90B
binding to hsp90B (SPR) (hsp90B): binds to both hsp90A and hsp90B
tumor growth, MAST1 2KR xenograft tumors ([4]; KB-3-1cisR MAST1 2KR, cisplatin (5 mg/kg) and 17-AAG (50 mg/kg)): resistant to these effects of 17-AAG treatment
tumor growth, MAST1 WT xenograft tumors ([4]; KB-3-1cisR MAST1 WT, cisplatin (5 mg/kg) and 17-AAG (50 mg/kg)): attenuated tumor growth upon cisplatin exposure
MAST1 protein level in xenograft tumors ([4]; xenograft mice, with cisplatin): decreased
xenograft tumor response to cisplatin ([4]; xenograft mice, with cisplatin): sensitized xenograft tumors to cisplatin

CC(C)C[C@@H](C=O)NC(=O)[C@H](CC(C)C)NC(=O)[C@H](CC(C)C)NC(=O)OCc1ccccc1 [MG-132] (Cbz-Leu-Leu-Leu-aldehyde)
17-AAG-mediated MAST1 degradation (MAST1 [5]; 293T cells): prevented 17-AAG-mediated MAST1 degradation
MAST1 ubiquitination (MAST1 [5]; proteasome inhibitor treatment): led to MAST1 ubiquitination

N.N.[Cl][Pt][Cl] [cisplatin]
WT MAST1 promoter activity (MAST1 promoter): induced WT MAST1 promoter activity
MAST1 level upon cisplatin treatment (MAST1 [6]): increased
GR cellular location (GR): translocated from the cytosol to the nucleus
GR location in xenograft tumors ([7]; administration of cisplatin): nuclear translocation of GR
MAST1 gene in xenografted tumors ([7]; after cisplatin administration in mice): induced
transcription factor activation (6 of 96 TFs incl. GR/PR, NFAT, ATF2, CAR, CBF) (96 cellular TFs): more than 1.8 fold

CC1CC2C3CCC4=CC(=O)C=CC4(C)C3(F)C(O)CC2(C)C1(O)C(=O)CO (centres unmarked) [dexamethasone, 9-fluoro-11,17-dihydroxy-17-(2-hydroxyacetyl)-10,13,16-trimethyl-6,7,8,9,10,11,12,13,14,15,16,17-dodecahydro-3H-cyclopenta [a]phenanthren-3-one]
GR activity, MAST1 expression, cisplatin-resistant tumor growth (GR, MAST1): enhanced GR activity, MAST1 expression, and cisplatin-resistant tumor growth
cisplatin response (cell viability) (KB-3-1 cells; [10]): conferred cisplatin resistance to cancer cells
MEK1 activity (MEK1 [8]; [10]): reactivation of MEK1
tumor growth (tumor volume) [9]: abolished the cisplatin effect

CC#CC1(O)CCC2C3CCC4=CC(=O)CCC4=C3C(c3ccc(N(C)C)cc3)CC21C (centres unmarked) [mifepristone, 11-(4-(dimethylamino)phenyl)-17-hydroxy-13-methyl-17-(prop-1-yn-1-yl)-1,2,6,7,8,11,12,13,14,15, 16,17-dodecahydro-3H-cyclopenta[a]phenanthren-3-one]
cisplatin response (cell viability) (KB-3-1 cells; [11]): sensitized cancer cells to cisplatin treatment
MEK1 activity (MEK1 phosphorylation at S217/S221) (MEK1 [8]; [11]): attenuated MEK1 activity
